Key:
[1] = tested on: patients with uncontrolled gout; details: mITT N = 14, PY of MTX = 1.0
From the text: As used herein, an “adverse event” or “AE” refers to any untoward medical occurrence associated with the use of a drug in humans, whether it is considered drug-related or not. An AE or suspected adverse reaction is considered a “serious adverse event” or “SAE” if, in the view of either the Investigator or Sponsor, it results in any of the following outcomes: (1) Death, (2) Life-threatening: an AE is considered “life-threatening” if, in the view of either the Investigator or Sponsor, its occurrence places the subject or subject at immediate risk of death. […] (5) A congenital anomaly/birth defect; (6) Important medical events that may not result in death, be life-threatening, or require hospitalization may be considered serious when, based upon appropriate medical judgment, they may jeopardize the patient or subject and may require medical or surgical intervention to prevent one of the outcomes listed in this definition.
Safety Variables: Safety was assessed via AE and concomitant medication use monitoring, physical examinations, vital signs, clinical safety laboratory evaluations (hematology, chemistry, urine uric acid:creatinine ratio), pregnancy testing (if applicable), electrocardiograms (ECGs), and AEs of special interest (i.e., IRs, anaphylaxis, gout flares, and cardiovascular events).
AEs of special interest may include IRs, anaphylaxis, gout flares, and cardiovascular events.
Severity in accordance with the disclosure is reported according to the following: Grade 1 (Mild)—No interference with daily activity. Grade 2 (Moderate)—Some interference with daily activity but medical intervention not required (e.g., doctor visit and/or medication); over the counter medicine permitted. Grade 3 (Severe)—Prevents daily activity and requires medical intervention (e.g., doctor visit and/or medication). Grade 4 (Potentially Life-threatening)—Emergency room visit or hospitalization.
An AE was defined as any untoward event, whether or not it was considered related to the use of pegloticase or MTX. Any worsening (i.e., any clinically significant adverse change in frequency or intensity) of a preexisting condition which was temporally associated with the use of pegloticase or MTX was also considered an AE. Abnormal laboratory values or test results constitute AEs only if they induce clinical signs or symptoms or require therapy, and were recorded on the AE CRF under the signs, symptoms or were associated with diagnoses associated with them. Screening conditions were not considered AE; however, worsening of a preexisting condition may be considered an AE. AEs were collected starting at the baseline, Visit 1.
TEAEs during the Pegloticase+IMM Period were defined as events that occur after the start of the first pegloticase infusion through 30 days after the last dose of pegloticase and/or MTX or placebo for MTX (whichever was later). TEAEs that occur during the MTX Tolerability Assessment Period prior to randomization (Weeks −6 to −4) was summarized separately for the MTX population. […] AEs that occur more than 30 days after the last dose of pegloticase and/or MTX or placebo for MTX through the 6-month follow-up visit was also summarized.

[2] = tested on: patients with uncontrolled gout; assay: Adverse events of special interest: gout flares during the Methotrexate Run-in Period; format: in vivo, human; details: for Number of Gout Flares per Subject among subjects with at least one gout flare, Mean / Number of Gout Flares per Subject among subjects with at least one gout flare, Median / Gout Flares, % of subjects / Subjects with 1 gout flare, % / Subjects with 2 gout flares, %: Methotrexate Run-in Period
From the text: As used herein, a “gout flare” refers to a manifestation of physiological or biochemical symptoms of gout, which is a possible side effect or AE associated with treatment with KXX. A gout flare may produce burning itching, tingling, or stiffness in the joints, particularly the peripheral joints. An individual may also experience redness, swelling, and pain in the joints. In accordance with the disclosure, gout flares may initially increase when starting treatment with KXX. For such individuals, medications to help reduce flares may be taken regularly for the first few months after KXX is started. […] In some embodiments, gout flare prophylaxis may include, but is not limited to, In some embodiments, prophylactic treatment may be given prior to an infusion of KXX, for example one week prior to treatment with KXX.
Gout Flare Treatment—An increase in gout flares was frequently observed upon initiation of anti-hyperuricemic therapy, including treatment with pegloticase. Participants were instructed to contact the site within 12 hours of the onset of symptoms. Gout flares were confirmed through questioning or direct observation. All participants who experience a gout flare during the study were prescribed anti-inflammatory treatment (e.g., corticosteroids, NSAIDs, colchicine) as deemed clinically indicated by the study physician.

Compound: CN(Cc1cnc2nc(N)nc(N)c2n1)c1ccc(C(=O)N[C@@H](CCC(=O)O)C(=O)O)cc1 [MTX, methotrexate]
- Any TEAEs, Incidence Rate [1]: 20.0 Events/PY of MTX
- Blood And Lymphatic System Disorders, Incidence Rate [1]: 2.0 Events/PY of MTX
- Chronic Sinusitis, Incidence Rate [1]: 1.0 Events/PY of MTX
- Cough, Incidence Rate [1]: 1.0 Events/PY of MTX
- Dental Caries, Incidence Rate [1]: 1.0 Events/PY of MTX
- Diarrhoea, Incidence Rate [1]: 1.0 Events/PY of MTX
- Dry Eye, Incidence Rate [1]: 1.0 Events/PY of MTX
- Eye Disorders, Incidence Rate [1]: 1.0 Events/PY of MTX
- Gastrointestinal Disorders, Incidence Rate [1]: 6.0 Events/PY of MTX
- Gout, Incidence Rate [1]: 6.0 Events/PY of MTX
- Headache, Incidence Rate [1]: 1.0 Events/PY of MTX
- Infections And Infestations, Incidence Rate [1]: 2.0 Events/PY of MTX
- Leukopenia, Incidence Rate [1]: 1.0 Events/PY of MTX
- Metabolism And Nutrition Disorders, Incidence Rate [1]: 6.0 Events/PY of MTX
- Nasopharyngitis, Incidence Rate [1]: 1.0 Events/PY of MTX
- Nausea, Incidence Rate [1]: 2.0 Events/PY of MTX
- Nervous System Disorders, Incidence Rate [1]: 1.0 Events/PY of MTX
- Neutropenia, Incidence Rate [1]: 1.0 Events/PY of MTX
- Pruritus, Incidence Rate [1]: 1.0 Events/PY of MTX
- Respiratory, Thoracic And Mediastinal Disorders, Incidence Rate [1]: 1.0 Events/PY of MTX
- Skin And Subcutaneous Tissue Disorders, Incidence Rate [1]: 1.0 Events/PY of MTX
- Maximum Reported Intensity of Flare (0-10 scale), Max ([2]; Day 1, ITT): 8
- Maximum Reported Intensity of Flare (0-10 scale), Mean ([2]; Day 1, ITT): 5.8
- Maximum Reported Intensity of Flare (0-10 scale), Median ([2]; Day 1, ITT): 5.5
- Maximum Reported Intensity of Flare (0-10 scale), Min ([2]; Day 1, ITT): 4
- Any Gout Flares Since the Last Visit, % ([2]; Day 1, ITT, 14 assessed): (57.1) %
- Pain at rest >3 out of 10, % ([2]; Day 1, ITT, 14 assessed): (57.1) %
- Pain different than normal, % ([2]; Day 1, ITT, 14 assessed): (50.0) %
- Swelling in Joints, % ([2]; Day 1, ITT, 14 assessed): (42.9) %
- Maximum Reported Intensity of Flare (0-10 scale), Max ([2]; Day 1, mITT): 8
- Maximum Reported Intensity of Flare (0-10 scale), Mean ([2]; Day 1, mITT): 5.8
- Maximum Reported Intensity of Flare (0-10 scale), Median ([2]; Day 1, mITT): 5.5
- Maximum Reported Intensity of Flare (0-10 scale), Min ([2]; Day 1, mITT): 4
- Any Gout Flares Since the Last Visit, % ([2]; Day 1, mITT, 14 assessed): (57.1) %
- Pain at rest >3 out of 10, % ([2]; Day 1, mITT, 14 assessed): (57.1) %
- Pain different than normal, % ([2]; Day 1, mITT, 14 assessed): (50.0) %
- Swelling in Joints, % ([2]; Day 1, mITT, 14 assessed): (42.9) %
- Number of Gout Flares per Subject among subjects with at least one gout flare, Mean ([2]; ITT): 1.2
- Number of Gout Flares per Subject among subjects with at least one gout flare, Median ([2]; ITT): 1.0
- Gout Flares, % of subjects ([2]; ITT N = 15): (33.3) %
- Subjects with 1 gout flare, % ([2]; ITT N = 15): (26.7) %
- Subjects with 2 gout flares, % ([2]; ITT N = 15): (6.7) %
- Number of Gout Flares per Subject among subjects with at least one gout flare, Mean ([2]; mITT): 1.2
- Number of Gout Flares per Subject among subjects with at least one gout flare, Median ([2]; mITT): 1.0
- Gout Flares, % of subjects ([2]; mITT N = 14): (35.7) %
- Subjects with 1 gout flare, % ([2]; mITT N = 14): (28.6) %
- Subjects with 2 gout flares, % ([2]; mITT N = 14): (7.1) %
- Maximum Reported Intensity of Flare (0-10 scale), Max ([2]; Week −4, ITT): 10
- Maximum Reported Intensity of Flare (0-10 scale), Mean ([2]; Week −4, ITT): 8.5
- Maximum Reported Intensity of Flare (0-10 scale), Median ([2]; Week −4, ITT): 8.0
- Maximum Reported Intensity of Flare (0-10 scale), Min ([2]; Week −4, ITT): 7
- Any Gout Flares Since the Last Visit, % ([2]; Week −4, ITT, 14 assessed): (57.1) %
- Pain at rest >3 out of 10, % ([2]; Week −4, ITT, 14 assessed): (50.0) %
- Pain different than normal, % ([2]; Week −4, ITT, 14 assessed): (42.9) %
- Swelling in Joints, % ([2]; Week −4, ITT, 14 assessed): (50.0) %
- Maximum Reported Intensity of Flare (0-10 scale), Max ([2]; Week −4, mITT): 10
- Maximum Reported Intensity of Flare (0-10 scale), Mean ([2]; Week −4, mITT): 8.2
- Maximum Reported Intensity of Flare (0-10 scale), Median ([2]; Week −4, mITT): 8.0
- Maximum Reported Intensity of Flare (0-10 scale), Min ([2]; Week −4, mITT): 7
- Any Gout Flares Since the Last Visit, % ([2]; Week −4, mITT, 13 assessed): (53.8) %
- Pain at rest >3 out of 10, % ([2]; Week −4, mITT, 13 assessed): (46.2) %
- Pain different than normal, % ([2]; Week −4, mITT, 13 assessed): (38.5) %
- Swelling in Joints, % ([2]; Week −4, mITT, 13 assessed): (46.2) %

From patent US20220323445A1, “REDUCING IMMUNOGENICITY TO PEGLOTICASE” (Horizon Therapeutics Ireland DAC, priority 2020, published 2022)
